Source: patent US4072744A, “N^2 -naphthalenesulfonyl-L-argininamides and the pharmaceutically acceptable salts thereof” (Mitsubishi Chemical Industries Limited, priority 1974, dated 1978)

Assay: acute toxicity (LD50) by intraperitoneal administration in mice
Conditions: mouse, in vivo, ip, mice (male, 20 g)
Source text: Representative LD50 values, for example, for N^2 -(5,6,7,8-tetrahydro-1-naphthalenesulfonyl)-N-methoxyethylglycine, N^2 -(7-methyl-2-naphthalenesulfonyl)-N-butylglycine and N^2 -(6,7-dimethyl-1-naphthalenesulfonyl)-N-methoxyethylglycine are above 1,500 milligrams per kilogram, respectively.
For `CCCCN(CC(=O)O)C(=O)[C@H](CCCNC(=N)N)NS(=O)(=O)c1ccc2ccc(C)cc2c1` [Sample 14, N^2-(7-methyl-2-naphthalenesulfonyl)-L-arginyl-N-butylglycine], the LD50 was > 1500 mg/kg.
In the case of `COCCN(CC(=O)O)C(=O)[C@H](CCCNC(=N)N)NS(=O)(=O)c1cccc2cc(C)c(C)cc12` [Sample 23, N^2-(6,7-dimethyl-1-naphthalenesulfonyl)-L-arginyl-N-methoxyethylglycine], the LD50 is reported as > 1500 mg/kg.
For `COCCN(CC(=O)O)C(=O)[C@H](CCCNC(=N)N)NS(=O)(=O)c1cccc2c1CCCC2` [Sample 3, N^2-(5,6,7,8-tetrahydro-1-naphthalenesulfonyl)-L-arginyl-N-methoxyethylglycine], the LD50 was > 1500 mg/kg.
